Here are results for 35 compounds from US10021901B2, “Antimicrobial mixture of aldehydes, organic acids and fatty acid esters” (ANITOX CORPORATION, priority 2011, dated 2018).

The structures appear in SMILES notation. In brackets after ≈: the same amount, converted by molar mass. Read-outs that look alike come from different tables or passages of the source.

Series [1] has as its system Salmonella typhimurium (ATTC:14028). Nature of the series: Organic acid esters against Salmonella typhimurium in test tubes (Example 1). The series is classed as cell-based. Conditions: for killing at 0.01 % / killing at 0.05 %: Salmonella enterica, TYPHIMURIUM, read-out: Reduction (% Reduction) of Salmonella typhimurium in vitro. On the procedure: Methyl and ethyl esters of organic acids were added to test tubes at concentrations of 0.01% and 0.05%. Tubes were vortexed for 10 seconds to uniformly mix the solution. A suspension of Salmonella typhimurium (ATTC:14028) was added to each test tube to achieve a final concentration of 10^4 cfu/ml. The solutions were vortexed, incubated at room temperature for 24 hours and plated on XLT-4 agar. Plates were incubated for 48 hours at 37° C. before enumerating colonies.

Another series concerns M. gypseum. Conditions: cited from earlier work.
For series [2], the system named is yeast (10^5 CFU/bottle) in beverages. Conditions: cited from earlier work.
In series [3] the test system is Helicobacter pylori and S. cholerasuis. Conditions: Kubo 1999; Kubo and Fujita 2001; cited from earlier work.
For series [4], the system named is B. cereus, S. typhimurium, V. parahaemolyticus, L. monocytogenes, S. aureus and E. coli O157:H7. Conditions: cited from earlier work.
A further series deals with P. syringae pathovars. Conditions: vapour; cited from earlier work.
In another series the test system is E. coli. Conditions: vapour; cited from earlier work.
The next series concerns Phoma mycelium. Conditions: cited from earlier work.
The test system of a further series is Penicillium expansum. Conditions: blue mold; cited from earlier work.
Series [5] has as its system A. flavus, P. notatum, A. alternate, F. oxysporum, Cladosporium spp., B. subtilis and A. tumerfaciens. Conditions: cited from earlier work.
In series [6] the test system is apricots, peaches and nectarines. Conditions: cited from earlier work.
In series [7] the test system is Staphylococcus aureus, E. coli and Salmonella typhimurium. Conditions: cited from earlier work.
Where [8] appears, read: Ethyl Ester, 0.01% Dilution, 24 hours room temperature, compared to control.
Where [9] appears, read: Ethyl Ester, 0.05% Dilution, 24 hours room temperature, compared to control.
Setting [10] is: Methyl Ester, 0.01% Dilution, 24 hours room temperature, compared to control.
Where [11] appears, read: Methyl Ester, 0.05% Dilution, 24 hours room temperature, compared to control.

Take `CCCCCCCCCCCCCC(=O)OCC`: the “Reduction (% Reduction) of Salmonella typhimurium in vitro” value (“Reduction (% Reduction)” below) in series [1] (setting [8]) was determined as 12%; in [1] (setting [9]), 8%.
Consider `CCCCCCCCCCCCCC(=O)OC`, for which the “Reduction (% Reduction)” value in series [1] (setting [10]) turned out to be 43%; in series [1] (setting [11]), 49%.
Regarding `CCOC(C)=O` [Acetic acid Ethyl Ester], the killing at 0.01 % in [1] (setting [8]) was determined as 0%. For the same compound, the killing at 0.05 % in [1] (setting [9]) amounted to 0%.
For `COC(C)=O` [Acetic acid Methyl Ester], the killing at 0.01 % in series [1] (setting [10]) came out at 0%. Also, the killing at 0.05 % in series [1] (setting [11]) was found to be 29%.
Regarding `CCOC(=O)c1ccccc1` [Benzoic acid Ethyl Ester, Ethyl benzoate], in [1] (24 h), the killing at 0.01 % turned out to be 100% and the killing at 0.05 % stood at 100%.
With `COC(=O)c1ccccc1` [Benzoic acid Methyl Ester, Methyl benzoate], in series [1] (24 h), the killing at 0.01 % was 34% and the killing at 0.05 % is 100%.
For `CCCC(=O)OCC` [Butyric acid Ethyl Ester, Ethyl butyrate], the killing at 0.01 % in series [1] (setting [8]) worked out at 28%. Moreover, the killing at 0.05 % in series [1] (setting [9]) amounted to 100%.
As to `CCCC(=O)OC` [Butyric acid Methyl Ester], in series [1] (24 h), the killing at 0.01 % is 0% and the killing at 0.05 % is 28%.
In the case of `CCCCCCCCCC(=O)OCC` [Capric (decanoic) acid Ethyl Ester], the “Reduction (% Reduction)” value in series [1] (setting [8]) and in [1] (setting [9]) was 0% each time.
Take `CCCCCCCCCC(=O)OC` [Capric (decanoic) acid Methyl Ester]: the “Reduction (% Reduction)” value in series [1] (setting [10]) is listed as 8%; in series [1] (setting [11]), 0%.
As to `CCCCCC(=O)OCC` [Caproic (hexanoic) acid Ethyl Ester, Ethyl hexanoate], the killing at 0.01 % in series [1] (setting [8]) amounted to 100%. For the same compound, the killing at 0.05 % in series [1] (setting [9]) turned out to be 100%.
On to `CCCCCC(=O)OC` [Caproic (hexanoic) acid Methyl Ester, Methyl hexanoate], for which the killing at 0.01 % in series [1] (setting [10]) is 99%. In addition, in [1] (setting [11]), the killing at 0.05 % came out at 100%.
For `CCCCCCCC(=O)OCC` [Caprylic (octanoic) acid Ethyl Ester], the figures for the “Reduction (% Reduction)” value in series [1] (setting [8]) and in series [1] (setting [9]) were 66% and 65%, respectively.
Consider `CCCCCCCC(=O)OC` [Caprylic (octanoic) acid Methyl Ester, Methyl octanoate], for which, in series [1] (setting [10]), the killing at 0.01 % came to 94%. In addition, the killing at 0.05 % in [1] (setting [11]) was 94%.
On to `COC=O` [Formic acid Methyl Ester], for which the killing at 0.01 % in [1] (setting [10]) came out at 0%. In series [1] (setting [11]), the killing at 0.05 % was 5%.
With `CC(=O)OCCC(C)C` [Isoamyl acetate], the “Effectiveness against Salmonella in words” value in series [1] (0.01% and 0.05%) was “bactericidal activity”. The killing at 0.01 % in [1] (isoamyl acetate itself, 0.01% Dilution, 24 hours) turned out to be 44%. The killing at 0.05 % in series [1] (isoamyl acetate itself, 0.05% Dilution, 24 hours) is 100%.
Take `COC(=O)C(C)C` [Isobutyric acid Methyl Ester]: in [1] (setting [10]), the killing at 0.01 % was found to be 3%. The killing at 0.05 % in [1] (setting [11]) is 41%.
For the compound `CCOC(=O)CC(C)C` [Isovaleric acid Ethyl Ester], the killing at 0.01 % in series [1] (setting [8]) stood at 61%. Also, the killing at 0.05 % in series [1] (setting [9]) came to 100%.
Take `CCCCCCCCCCCC(=O)OCC` [Lauric (dodecanoic) acid Ethyl Ester]: the “Reduction (% Reduction)” value in [1] (setting [8]) and in series [1] (setting [9]) was 0% in each case.
Consider `CCCCCCCCCCCC(=O)OC` [Lauric (dodecanoic) acid Methyl Ester, Methyl laurate], for which the killing at 0.01 % in series [1] (setting [10]) was 1%. In addition, the killing at 0.05 % in series [1] (setting [11]) turned out to be 0%.
As to `CCOC(=O)CCC(C)=O` [Levulinic acid Ethyl Ester], in series [1] (setting [8]), the killing at 0.01 % was determined as 0%. Moreover, in series [1] (setting [9]), the killing at 0.05 % stood at 8%.
In the case of `COC(=O)CCC(C)=O` [Levulinic acid Methyl Ester], the killing at 0.01 % in series [1] (setting [10]) was found to be 0%. In addition, the killing at 0.05 % in [1] (setting [11]) is 12%.
For the compound `CCCCC/C=C\C/C=C\CCCCCCCC(=O)OCC` [Linoleic acid Ethyl Ester], in series [1] (setting [8]), the killing at 0.01 % was 0%. The killing at 0.05 % in series [1] (setting [9]) was found to be 0%.
Regarding `CCCCC/C=C\C/C=C\CCCCCCCC(=O)OC` [Linoleic acid Methyl Ester, methyl linoleate], the killing at 0.01 % in series [1] (setting [10]) was 14%. Also, in series [1] (setting [11]), the killing at 0.05 % is 0%.
`CCOC(=O)CC(=O)O` [Malonic acid Ethyl Ester]: the killing at 0.01 % in series [1] (setting [8]) turned out to be 36%. Also, in series [1] (setting [9]), the killing at 0.05 % was 57%.
Regarding `COC(=O)CC(=O)O` [Malonic acid Methyl Ester], the killing at 0.01 % in series [1] (setting [10]) stood at 13%. Further, the killing at 0.05 % in series [1] (setting [11]) amounted to 9%.
Consider `CCOC(=O)CC` [Propionic acid Ethyl Ester], for which the killing at 0.01 % in series [1] (setting [8]) was 0%. In series [1] (setting [9]), the killing at 0.05 % was 40%.
Regarding `CCC(=O)OC` [Propionic acid Methyl Ester], in series [1] (24 h), the killing at 0.01 % turned out to be 9% and the killing at 0.05 % amounted to 19%.
For `CCCCC(=O)OCC` [Valeric (pentanoic) acid Ethyl Ester, Ethyl pentanoate], in that order: 93% and 100%.
For `CCCCC(=O)OC` [Valeric (pentanoic) acid Methyl Ester, Methyl pentanoate], in that order: 10% and 100%.
`CCCCCCCCCC(=O)O` [capric acid, reference compound]: the entries for the “minimum inhibitory concentration (MIC)” value in the series on M. gypseum (liquid media) and in the series on M. gypseum (solid media) were 75 µg/mL (≈ 435 µM) and 20 µg/mL (≈ 116 µM), respectively.
Consider `CC(C)=CCCC(C)=CC=O` [citral, reference compound], for which, in series [2] (equivalent to 25 ppm trans-2-hexenal and thermal treatment), the “equivalent concentration for control of yeast” value is 100-120 ppm.
With `CCCCCCCCC(=O)O` [nonanoic acid], the “minimum inhibitory concentration (MIC)” value in the series on M. gypseum (liquid media) was 50 µg/mL (≈ 316 µM); in the series with M. gypseum (solid media), 40 µg/mL (≈ 253 µM).
As to `CCC/C=C/C=O` [trans-2-hexenal], in [3], the minimum biocidal activity was 800 µg/mL and the minimum inhibitory activity is 400 µg/mL. Also, the effective concentration in [4] is 247 mg/L. Moreover, in the series with P. syringae pathovars, the “concentration that completely inhibited proliferation” value is listed as 570 μg/L of air. The “concentration that completely inhibited proliferation” value with E. coli is 930 micrograms/L of air. Besides, the “concentration effective on inhibiting growth” value in the series on Phoma mycelium was 250 µg/mL. Moreover, the “concentration effective on controlling Penicillium expansum” value with Penicillium expansum was 12.5 μl/l. Further, in [5], the “concentration that completely inhibited growth” value is reported as 8 ng/l air. The “concentration necessary to control microorganisms” value in series [2] (beverages not thermally treated) is recorded as 35 ppm. Besides, in series [2] (with thermal treatment (56° C. for 20 min), equivalent to citral), the “concentration for control of yeast” value was 25 ppm. In [6] (apricots), the phytotoxicity entry is “not phytotoxic”. In addition, in series [6] (peaches and nectarines), the phytotoxic concentration is recorded as 40 μl/l.
Regarding `CC/C=C/CC=O` [trans-3-hexenal], the “level effective in controlling bacteria” value in series [7] was 3 to 30 µg/mL.
